The subject of the assay is P388 leukemia ip, CD2F1 mice, survival T/C. Kind of assay: NCI In Vivo Anticancer Drug Screen. Data for tumor model P388 Leukemia (intraperitoneal) in CD2F1 (CDF1) mice. The conditions noted are these: endpoint: median survival time, higher = longer survival. In outline: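 Mice carrying the transplanted tumor received test compound or vehicle. Survival was recorded in each group, and the value is the treated-group measurement divided by that of the vehicle-treated control group.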

The mark [1] stands for this setting: dose: 50.0 mg/kg/injection, schedule: Q04DX003 (ip), vehicle: saline with Tween-80.
[2] abbreviates: dose: 100.0 mg/kg/injection, schedule: Q04DX003 (ip), vehicle: saline with Tween-80.
[3] abbreviates: dose: 200.0 mg/kg/injection, schedule: Q04DX003 (ip), vehicle: saline with Tween-80.
Where [4] appears, read: dose: 100.0 mg/kg/injection, schedule: Q01DX009 (ip), vehicle: saline with Tween-80.
The mark [5] stands for this setting: dose: 200.0 mg/kg/injection, schedule: Q01DX009 (ip), vehicle: saline with Tween-80.
Where [6] appears, read: dose: 50.0 mg/kg/injection, schedule: Q01DX005 (ip), vehicle: saline with Tween-80.
[7] abbreviates: dose: 100.0 mg/kg/injection, schedule: Q01DX005 (ip), vehicle: saline with Tween-80.
Where [8] appears, read: dose: 50.0 mg/kg/injection, schedule: Q01DX005 (ip), vehicle: Klucel (hydroxypropylcellulose) (HPC).
[9] abbreviates: dose: 100.0 mg/kg/injection, schedule: Q01DX005 (ip), vehicle: Klucel (hydroxypropylcellulose) (HPC).
Setting [10] is: dose: 50.0 mg/kg/injection, schedule: Q01DX009 (ip), vehicle: saline.
Where [11] appears, read: dose: 100.0 mg/kg/injection, schedule: Q01DX009 (ip), vehicle: saline.
Setting [12] is: dose: 200.0 mg/kg/injection, schedule: Q01DX009 (ip), vehicle: saline.
Setting [13] is: dose: 50.0 mg/kg/injection, schedule: Q01DX009 (ip), vehicle: saline with Tween-80.
[14] abbreviates: dose: 12.5 mg/kg/injection, schedule: Q01DX009 (ip), vehicle: Klucel (hydroxypropylcellulose) (HPC).
Where [15] appears, read: dose: 25.0 mg/kg/injection, schedule: Q01DX009 (ip), vehicle: Klucel (hydroxypropylcellulose) (HPC).
Setting [16] is: dose: 50.0 mg/kg/injection, schedule: Q01DX009 (ip), vehicle: Klucel (hydroxypropylcellulose) (HPC).

“And” between values parts separate entries of the source, which are not always exact repeats. Equal values may be shown once. Inconclusive results and toxic doses are left out.

Turning to `O=[N+]([O-])c1ccc(-n2[nH]nnc2=S)cc1`, the T/C was 98 % of control and 104 % of control under setting [1]; 100 % of control and 104 % of control under setting [2]; 98 % of control and 91 % of control under setting [3].

Take `CC(=O)c1cccc2cccc([N+](=O)[O-])c12`: the T/C under setting [4] was 104 % of control; the T/C under setting [5] was 90 % of control; the T/C (dose: 400.0 mg/kg/injection, schedule: Q01DX009 (ip), vehicle: saline with Tween-80) is 104 % of control.

For the compound `CCN(CC)CCNC(=O)c1ccc2c(c1O)C(=O)c1ccccc1C2=O`, the T/C was 106 % of control under setting [6] and 106 % of control under setting [7].

For the compound `COc1cc(C2=[N+](C)CCc3cc4c(cc32)OCO4)cc(OC)c1OC`, the T/C by setting is: under setting [8], 99 % of control; under setting [9], 103 % of control.

As for `CCOC(=O)c1cnc(N)nc1CCC(=O)O`, the T/C was 107 % of control (dose: 37.5 mg/kg/injection, schedule: Q01DX009 (ip), vehicle: saline with Tween-80); 102 % of control (dose: 75.0 mg/kg/injection, schedule: Q01DX009 (ip), vehicle: saline with Tween-80); 107 % of control (dose: 150.0 mg/kg/injection, schedule: Q01DX009 (ip), vehicle: saline with Tween-80).

Take `C=CCOC(=O)CCCC1=NC2=CC=CC3=NC(C)=NC(=N1)N23`: the T/C by setting is: under setting [1], 105 % of control; under setting [2], 99 % of control; under setting [3], 91 % of control.

As to `O=C1C=CC(=O)N1c1ccc2c(c1)oc(=O)c1ccccc12`, the T/C was 95 % of control (dose: 12.5 mg/kg/injection, schedule: Q01DX009 (ip), vehicle: saline); 92 % of control (dose: 25.0 mg/kg/injection, schedule: Q01DX009 (ip), vehicle: saline); 90 % of control under setting [10]; 100 % of control under setting [11]; 99 % of control under setting [12]; 110 % of control (dose: 400.0 mg/kg/injection, schedule: Q01DX009 (ip), vehicle: saline).

On to `CCCCOC1OCN(Cc2ccccc2)CC1(C)C` (stereo not drawn), for which the T/C runs as follows: under setting [13], 111 % of control; under setting [4], 123 % of control; under setting [5], 122 % of control.

With `O=S(=O)(c1cc(Cl)c(Cl)cc1Cl)N(CCCCCN(S(=O)(=O)c1cc(Cl)c(Cl)cc1Cl)S(=O)(=O)c1cc(Cl)c(Cl)cc1Cl)S(=O)(=O)c1cc(Cl)c(Cl)cc1Cl`, the T/C reads like this: (dose: 60.0 mg/kg/injection, schedule: Q01DX005 (ip), vehicle: Klucel (hydroxypropylcellulose) (HPC)) 91 % of control; (dose: 120.0 mg/kg/injection, schedule: Q01DX005 (ip), vehicle: Klucel (hydroxypropylcellulose) (HPC)) 91 % of control.

For `CCCCCCCCCCC1SCC(=O)N1c1nncs1` (stereo not drawn), the T/C (dose: 60.0 mg/kg/injection, schedule: Q01DX005 (ip), vehicle: saline with Tween-80) was 102 % of control; the T/C (dose: 120.0 mg/kg/injection, schedule: Q01DX005 (ip), vehicle: saline with Tween-80) was 97 % of control; the T/C (dose: 240.0 mg/kg/injection, schedule: Q01DX005 (ip), vehicle: saline with Tween-80) was 94 % of control.

For `CN(CCC(CCC(=O)O)(C(=O)O)c1ccccc1)Cc1ccccc1` (stereo not drawn), the T/C was 92 % of control under setting [8]; 100 % of control under setting [9]; 98 % of control (dose: 200.0 mg/kg/injection, schedule: Q01DX005 (ip), vehicle: Klucel (hydroxypropylcellulose) (HPC)).

For the compound `CC(N=c1ccccn1O)C(O)c1ccccc1` (stereo not drawn), the T/C under setting [10] was 101 % of control, the T/C under setting [11] was 97 % of control and the T/C under setting [12] is 97 % of control.

With `Cc1ccc(S(=O)(=O)Nc2ccccc2OCCN(CCOc2ccccc2NS(=O)(=O)c2ccc(C)cc2)S(=O)(=O)c2ccc(C)cc2)cc1`, the T/C under setting [13] was 96 % of control, the T/C under setting [4] is 99 % of control and the T/C under setting [5] was 93 % of control.

For the compound `CC(N)(CO)C(=O)O` (stereo not drawn), the T/C runs as follows: (dose: 100.0 mg/kg/injection, schedule: Q04DX003 (ip), vehicle: saline) 104 % of control; (dose: 200.0 mg/kg/injection, schedule: Q04DX003 (ip), vehicle: saline) 90 % of control; (dose: 400.0 mg/kg/injection, schedule: Q04DX003 (ip), vehicle: saline) 100 % of control.

On to `CC(=O)OCCCN1/C(=C/C=C2\CCC(/C=C/c3sc4cc5ccccc5cc4[n+]3CCCOC(C)=O)=C2N(c2ccccc2)c2ccccc2)Sc2cc3ccccc3cc21`, for which the T/C is, setting by setting: under setting [14], 110 % of control; under setting [15], 110 % of control; under setting [16], 111 % of control.

For the compound `O=C(N/C(=C/c1ccccc1)C(=O)N1CCN(C(=O)/C(=C\c2ccccc2)NC(=O)c2ccccc2)CC1)c1ccccc1`, the T/C runs as follows: under setting [6], 93 % of control; under setting [7], 92 % of control; (dose: 200.0 mg/kg/injection, schedule: Q01DX005 (ip), vehicle: saline with Tween-80) 93 % of control.

On to `O=C1CC(C(=O)N2Cc3cc4ccccc4nc3C2)CO1` (stereo not drawn), for which the T/C by setting is: (dose: 3.13 mg/kg/injection, schedule: Q01DX009 (ip), vehicle: saline with Tween-80) 100 % of control and 98 % of control; (dose: 6.25 mg/kg/injection, schedule: Q01DX009 (ip), vehicle: saline with Tween-80) 99 % of control and 100 % of control and 115 % of control; (dose: 12.5 mg/kg/injection, schedule: Q01DX009 (ip), vehicle: saline with Tween-80) 106 % of control and 124 % of control and 98 % of control; (dose: 25.0 mg/kg/injection, schedule: Q01DX009 (ip), vehicle: saline with Tween-80) 100 % of control (2×) and 108 % of control; under setting [13], 100 % of control.

As to `NC(CCCOS(=O)(=O)O)Cc1ccc2ccccc2c1` (stereo not drawn), the T/C is, setting by setting: (dose: 100.0 mg/kg/injection, schedule: Q04DX003 (ip), vehicle: Klucel (hydroxypropylcellulose) (HPC)) 100 % of control; (dose: 200.0 mg/kg/injection, schedule: Q04DX003 (ip), vehicle: Klucel (hydroxypropylcellulose) (HPC)) 100 % of control; (dose: 400.0 mg/kg/injection, schedule: Q04DX003 (ip), vehicle: Klucel (hydroxypropylcellulose) (HPC)) 94 % of control.

On to `CC(C)=CC(=O)OC1C2C(C)=CC(=O)C(O)C2(C)C2C3(O)OCC24C(CC(=O)OC14)C(C)C3O` (stereo not drawn), for which the T/C runs as follows: (dose: 0.5 mg/kg/injection, schedule: Q01DX009 (ip), vehicle: distilled water + Tween-80) 161 % of control; (dose: 1.0 mg/kg/injection, schedule: Q01DX009 (ip), vehicle: distilled water + Tween-80) 169 % of control and 198 % of control; (dose: 2.0 mg/kg/injection, schedule: Q01DX009 (ip), vehicle: distilled water + Tween-80) 180 % of control and 191 % of control.

Turning to `CC(C)NC(=O)OCc1c(COC(=O)NC(C)C)c(-c2ccc(Cl)c(Cl)c2)n2c1C[C@@H](O)C2`, the T/C by setting is: (dose: 2.5 mg/kg/injection, schedule: Q01DX005 (ip), vehicle: Klucel (hydroxypropylcellulose) (HPC)) 120 % of control; (dose: 5.0 mg/kg/injection, schedule: Q01DX005 (ip), vehicle: Klucel (hydroxypropylcellulose) (HPC)) 120 % of control; under setting [8], 150 % of control; under setting [9], 166 % of control.

Turning to `Cn1c(=S)[nH]c2c(c1=O)CCCN2`, the T/C is 101 % of control (dose: 100.0 mg/kg/injection, schedule: Q01DX001 (ip), vehicle: Klucel (hydroxypropylcellulose) (HPC)); 99 % of control (dose: 200.0 mg/kg/injection, schedule: Q01DX001 (ip), vehicle: Klucel (hydroxypropylcellulose) (HPC)); 95 % of control (dose: 400.0 mg/kg/injection, schedule: Q01DX001 (ip), vehicle: Klucel (hydroxypropylcellulose) (HPC)).

As for `CC(C)c1cccc(O)c1O`, the T/C under setting [11] was 97 % of control.

In the case of `OC1(c2ccccc2C(O)(C(F)(F)F)C(F)(F)F)OC(C(F)(F)F)(C(F)(F)F)c2ccccc21` (stereo not drawn), the T/C was 101 % of control under setting [14], 99 % of control under setting [15] and 99 % of control under setting [16].

As to `Cc1[nH]n(-c2ccccc2)c(=O)c1N=Nc1cccc(C(F)(F)F)c1`, the T/C is, setting by setting: (dose: 100.0 mg/kg/injection, schedule: Q04DX002 (ip), vehicle: saline) 92 % of control; (dose: 200.0 mg/kg/injection, schedule: Q04DX002 (ip), vehicle: saline) 99 % of control; (dose: 400.0 mg/kg/injection, schedule: Q04DX002 (ip), vehicle: saline) 100 % of control.

These data come from PubChem BioAssay AID330 (DTP/NCI, 2004).
